From ChEMBL document CHEMBL1137622, “8-Hydroxy-3,4-dihydropyrrolo[1,2-a]pyrazine-1(2H)-one HIV-1 integrase inhibitors” (Bioorg Med Chem Lett, 2007) come the findings set out here.

Data set [1] can be described thus: Half life in rat at 2 mg/kg, iv. Conditions: in vivo. It is filed as ADME, organism-based. On the set-up: dose 2 mg/kg, route intravenous.
For the next data set, the system named is MT4. The data set is described as follows: Cytotoxicity against human MT4 cells at concentrations up to 20 uM. It is filed as cell-based.
In data set [2] the target is Human immunodeficiency virus type 1 integrase (Human immunodeficiency virus 1, UniProt Q7ZJM1). The data set is described as follows: Inhibition of recombinant HIV1 integrase strand transfer activity.
Human immunodeficiency virus type 1 integrase, sequence (Q7ZJM1 whole entry): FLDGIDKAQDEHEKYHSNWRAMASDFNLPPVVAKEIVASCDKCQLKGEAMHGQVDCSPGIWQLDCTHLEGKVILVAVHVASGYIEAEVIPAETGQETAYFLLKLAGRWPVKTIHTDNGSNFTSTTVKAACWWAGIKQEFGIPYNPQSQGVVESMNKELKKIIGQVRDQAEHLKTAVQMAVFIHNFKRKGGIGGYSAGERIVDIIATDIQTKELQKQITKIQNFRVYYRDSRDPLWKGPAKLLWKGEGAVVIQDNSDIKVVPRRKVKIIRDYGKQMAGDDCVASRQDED
Data set [3] can be described thus: Clearance in rat at 2 mg/kg, iv. Also on record: dose 2 mg/kg, route intravenous. Conditions: in vivo. Format: ADME, organism-based.
Data set [4] deals with Human immunodeficiency virus 1. Briefly: Antiviral activity against HIV1 3B infected in human MT4 cells after 24 hrs by p24 ELISA. Format: functional. Conditions: Human immunodeficiency virus 1, 3B, MT4, 24 h; read-out: CIC95. On the technique in general: An ELISA detects its analyte on a solid surface through an enzyme-linked reagent.
For data set [5], the system named is Human immunodeficiency virus 1. Briefly: Antiviral activity against HIV1 at concentrations upto 20 uM. Format: functional, organism-based.

Activity calls are given as the source filed them. The calls are words filed in the database; no cut-off is given here.

Description for physchem: Dissociation constant, pKa of the compound

`CCOC(=O)c1cn2c(c1O)C(=O)N(Cc1ccc(Cl)c(Cl)c1)CC2`: in data set [1], the half-life – broadly, the time in which the quantity being followed falls by half – is 30 min. For the same compound, in the data set on MT4, the Activity result is reported as “Non-toxic”. The IC50 (usually the concentration that gives 50% inhibition) in data set [2] was 10 nM. Moreover, the clearance – broadly, the volume of plasma or blood freed of the substance per unit of time – in data set [3] was 30 mL/min/kg. For the same compound, in data set [4], the IC95 was 310 nM.

For `CCOC(=O)c1cn2c(c1O)C(=O)N(Cc1ccc(Cl)cc1)CC2`, in the data set on MT4, the Activity result is “Non-toxic”. Moreover, in data set [2], the IC50 was determined as 40 nM. Further, the IC95 in data set [4] is 1020 nM.

Take `CCOC(=O)c1cn2c(c1O)C(=O)N(Cc1ccc(F)c(Cl)c1)CC2`: the Activity entry in the data set with MT4 is reported as “Non-toxic”. In addition, the IC50 in data set [2] came out at 20 nM. In data set [4], the IC95 was 940 nM.

`CNC(=O)c1cn2c(c1O)C(=O)N(Cc1ccc(Cl)cc1)CC2`: in data set [2], the IC50 is 60 nM. Further, the IC95 in data set [4] was 2500 nM.

As to `O=C1c2c(O)c3n(c2CCN1Cc1ccc(F)cc1)CCN(Cc1ccc(F)cc1)C3=O`, in data set [2], the IC50 was less than 10 nM. For the same compound, the IC95 in data set [4] amounted to 70 nM.

`CCOC(=O)c1cn2c(c1O)C(=O)N(Cc1cccc(F)c1)CC2`: the Activity result in the data set with MT4 is “Non-toxic”. Further, the IC50 in data set [2] came out at 110 nM. The IC95 in data set [4] is 9380 nM.

With `CCOC(=O)c1cn2c(c1O)C(=O)N(Cc1ccc(F)cc1)CC2`, the Activity result in the data set on MT4 is given as “Non-toxic”. The IC50 in data set [2] is 40 nM. Besides, in data set [4], the IC95 worked out at 3230 nM.

Take `O=C(O)c1cn2c(c1O)C(=O)N(Cc1cccc(Cl)c1)CC2`: the outcome in data set [5] was inactive. The pKa (commonly the negative logarithm of the acid dissociation constant) in “physchem” is 3.8. Moreover, the IC50 in data set [2] stood at 10 nM. Besides, the IC95 in data set [4] was greater than 20000 nM.

For `CNC(=O)c1cn2c(c1O)C(=O)N(Cc1ccc(Cl)c(Cl)c1)CC2`, in data set [2], the half-maximal inhibitory concentration (IC50) stood at 40 nM. The IC95 in data set [4] was 1250 nM.

In the case of `CCOC(=O)c1cn2c(c1O)C(=O)N(Cc1ccccc1)CC2`, the Activity result in the data set on MT4 is on record as “Non-toxic”. Further, in data set [2], the IC50 worked out at 220 nM. In addition, the IC95 in data set [4] was found to be 20000 nM.

Regarding `CN1CCn2c3c(c(O)c2C1=O)C(=O)N(Cc1ccc(F)cc1)CC3`, in data set [2], the IC50 was less than 10 nM. The IC95 in data set [4] was 160 nM.

In the case of `CCOC(=O)c1cn2c(c1O)C(=O)N(Cc1ccc(F)cc1)CCC2`, in data set [2], the IC50 was greater than 5000 nM.

For `CNC(=O)c1cn2c(c1O)C(=O)N(Cc1ccc(F)cc1)CC2`, the IC50 in data set [2] came to 80 nM. For the same compound, the IC95 in data set [4] was determined as 10000 nM.

On to `CN1CCc2c(c(O)c3n2CCN(Cc2ccc(F)cc2)C3=O)C1=O`, for which the IC50 in data set [2] is less than 10 nM. Also, the IC95 in data set [4] stood at 390 nM.

Take `O=C(O)c1cn2c(c1O)C(=O)N(Cc1ccccc1)CC2`: the outcome in data set [5] was inactive. The compound also came in with a pKa in “physchem” of 3.8. Further, in data set [2], the IC50 is 80 nM. For the same compound, the IC95 in data set [4] is greater than 20000 nM.

Turning to `CCOC(=O)c1cn2c(c1O)C(=O)N(Cc1cccc(Cl)c1)CC2`, the Activity entry with MT4 is “Non-toxic”. Moreover, the half-maximal inhibitory concentration (IC50) in data set [2] was found to be 30 nM. In data set [4], the IC95 was 1250 nM.
